Reference: patent publication US4672036A, “Pure cultures of Kibdelsporangium aridum Shearer gen. nov., sp. nov. ATCC 39323 and mutants thereof” (SmithKline Beckman Corporation, priority 1985, dated 1987)
In brackets after ≈: the same amount, converted by molar mass. Several values for one entry are separate records, joined by “and”; a condition that tells them apart may be missing. Equal values may be shown once. Read-outs that look alike come from different tables or passages of the source. Where a SMILES comes first, the peptide text is derived from it. Bridges are numbered along the chain shown (N, C = ends). [ ]: non-standard residue; d: D form. The star is where a group is joined. Ileψ(thiazoline)Cys = CC[C@H](C)[C@H](N)C1=N[C@H](C(=O)*)CS1; dOrn = NCCC[C@@H](N)C(=O)O

Experiments:
rumen in vitro model [1] = test: rumen in vitro model (growth promotant activity); design: species or system steer
Protocol: The protocol for the rumen in vitro model is analogous to the protocol for the swine in vitro model with the following modifications:
(1) A 400 kg steer is surgically prepared with a rumen cannula.
(2) The animal is fed one time a day with the following ration:
(3) Manipulation of VFA production is described as the production ratio of propionate as a percentage of total VFA produced.
(4) Sampling of the material, via the cannula, is at 120 minutes post feeding.

rumen in vitro model [2] = test: rumen in vitro model (growth promotant activity); design: species or system steer; remark: listed apart in the source
K. aridum = test: susceptibility of K. aridum to antibiotics, disk diffusion method; assay type: cell-based, Kibdelosporangium aridum; conditions: for zone of inhibition at 5 µg/disc: Kibdelosporangium aridum, 168 h
Protocol: Susceptibility of K. aridum to antibiotics was examined by placing BBL susceptibility disks on nutrient agar plates seeded with K. aridum as an overlay. Diameters of the zones of inhibition were measured after incubation for one week at 28° C.
Chlortetracycline ([…]) produced 18 mm zones of inhibition; tetracycline (5 μg) 11-12 mm zones; rifampin (5 μg) 11-15 mm zones; novobiocin (5 μg) 27-28 mm zones. All zones of inhibition contained at least a few resistant colonies.

Strep. faecilis HH34358 = assay type: cell-based; conditions: Table A
[3] = tested on: Proteus mirabilis SK & F 444; assay type: cell-based; conditions: Table A
[4] = tested on: E. coli 12140 (SK & F 809); assay type: cell-based; conditions: Table A
[5] = tested on: Kleb. pneumoniae 4200 (SK & F 798); assay type: cell-based; conditions: Table A
[6] = tested on: Pseudomonas aeruginosa HH63; assay type: cell-based; conditions: Table A
[7] = tested on: Serratia marcesens ATCC 13880; assay type: cell-based; conditions: Table A
[8] = tested on: Proteus morgani SK & F 179; assay type: cell-based; conditions: Table A
Providencia SK & F 276 = assay type: cell-based; conditions: Table A
[9] = tested on: Enterobacter cloacae HH31254; assay type: cell-based; conditions: Table A
[10] = tested on: Listeria monocytogenes SK & F 2255; assay type: cell-based; conditions: Table A
[11] = tested on: Staph. aureus SK & F 2613; assay type: cell-based; conditions: Table B, Methicillin Sensitive
[12] = tested on: Bacteroides fragilis ATCC 25285; assay type: cell-based; conditions: Table D, Anaerobes
B. fragilis H145 = assay type: cell-based, Bacteroides fragilis; conditions: Table D, Anaerobes
B. fragilis SK & F 3060 = assay type: cell-based, Bacteroides fragilis; conditions: Table D, Anaerobes
B. loeochii SK & F 3087 = assay type: cell-based; conditions: Table D, Anaerobes
[13] = tested on: B. thetaiotamicron SK & F 3089; assay type: cell-based; conditions: Table D, Anaerobes
[14] = tested on: Fusobacterium nucleatum ATCC 25586; assay type: cell-based; conditions: Table D, Anaerobes
Swine in vitro model = test: swine in vitro model (growth promotant activity)
solubility = assay type: physicochemical
[15] = tested on: Salmonella gallinarum BC595; conditions: Table A
[16] = tested on: Clostridium perfringens MCP-1; conditions: Table D, Anaerobes
C. perfringens MCP-2 = conditions: Table D, Anaerobes
[17] = rye diet; for Feed/Gain 3-10: days 3-10; for Feed/Gain 3-17: days 3-17; for Feed/Gain 10-17: days 10-17

CC[C@@]1([C@H]2O[C@H]([C@H]3O[C@@](O)(CO)[C@H](C)C[C@@H]3C)C[C@H]2C)CC[C@H]([C@@]2(C)CC[C@]3(C[C@H](O)[C@@H](C)[C@@H]([C@H](C)[C@H](OC)[C@@H](C)C(=O)O)O3)O2)O1 [Monensin Sodium]
Propionate % (rumen in vitro model [1]): 156 % Control and 149 % Control and 119 % Control | VFA (total of volatile fatty acids) (rumen in vitro model [1]): 104 % Control and 94 % Control | LYS (lysine) (rumen in vitro model [2]): 147 % Control and 141 % Control

CC[C@H](C)[C@H](N)C1=N[C@H](C(=O)N[C@@H](CC(C)C)C(=O)N[C@H](CCC(=O)O)C(=O)N[C@H](C(=O)N[C@H]2CCCCNC(=O)[C@H](CC(N)=O)NC(=O)[C@@H](CC(=O)O)NC(=O)[C@H](Cc3cnc[nH]3)NC(=O)[C@@H](Cc3ccccc3)NC(=O)[C@H]([C@@H](C)CC)NC(=O)[C@@H](CCCN)NC2=O)[C@@H](C)CC)CS1 [bacitracin] ({Ileψ(thiazoline)Cys}-L[dE]IK[dOrn]I[dF]H[dD]N; lactam 4-C)
susceptibility of K. aridum (K. aridum; disk 2 units): resistant

CO[C@H]1/C=C/O[C@@]2(C)Oc3c(C)c(O)c4c(O)c(c(/C=N/N5CCN(C)CC5)c(O)c4c3C2=O)NC(=O)/C(C)=C\C=C\[C@H](C)[C@H](O)[C@@H](C)[C@@H](O)[C@@H](C)[C@H](OC(C)=O)[C@@H]1C [rifampin]
zone of inhibition at 5 µg/disc (K. aridum): 11 to 15 mm

CC1(C)S[C@@H]2[C@H](NC(=O)Cc3ccccc3)C(=O)N2[C@H]1C(=O)O [penicillin]
susceptibility of K. aridum (K. aridum; disk 10 units): resistant

CN[C@H]1C(=O)N[C@H]2C(=O)N[C@H](C(=O)N[C@H]3C(=O)N[C@H]4C(=O)N[C@H](C(=O)N[C@H](C(=O)O)c5cc(O)cc(O[C@H]6O[C@H](CO)[C@@H](O)[C@H](O)[C@@H]6O)c5-c5cc4ccc5O)[C@H](O)c4cc(Cl)c(c(Cl)c4)Oc4cc3cc(c4O[C@@H]3O[C@H](C(=O)O)[C@@H](O)[C@H](O)[C@H]3NC(=O)CCCCCCCCC(C)C)Oc3ccc(cc3Cl)[C@H]2O)c2cc(cc(O)c2Cl)Oc2cc1ccc2O
MIC (Strep. faecilis HH34358): 0.8 µg/mL (≈ 0.44 µM) | MIC [3]: > 100 µg/mL | MIC [4]: > 100 µg/mL | MIC [5]: > 100 µg/mL | MIC [6]: > 100 µg/mL | MIC [7]: > 100 µg/mL | MIC [8]: > 100 µg/mL | MIC (Providencia SK & F 276): > 100 µg/mL | MIC [9]: > 100 µg/mL | MIC [10]: ~ 0.4 μg/ml | MIC [11]: 1.6 µg/mL (≈ 0.88 µM) | MIC [12]: 32 µg/mL (≈ 17.6 µM) | MIC (B. fragilis H145): 8 µg/mL (≈ 4.4 µM) | MIC (B. fragilis SK & F 3060): 16 µg/mL (≈ 8.8 µM) | MIC (B. loeochii SK & F 3087): 4 µg/mL (≈ 2.2 µM) | MIC [13]: 32 µg/mL (≈ 17.6 µM) | MIC [14]: 32 µg/mL (≈ 17.6 µM) | GLU (glucose) (Swine in vitro model): 191 % Control and 188 % Control and 96 % Control | Propionate % (rumen in vitro model [1]): 120 % Control | VFA (total of volatile fatty acids) (rumen in vitro model [1]): 111 % Control | solubility (solubility; H2O, methanol, dimethylsulfoxide, dimethylformamide): soluble | solubility (solubility; ethanol, acetonitrile, acetone, diethylether, aliphatic hydrocarbons): insoluble | MIC [15]: > 100 µg/mL | MIC [16]: ≤ 0.016 µg/mL | MIC (C. perfringens MCP-2): ≤ 0.016 µg/mL | LYS (lysine) (rumen in vitro model [2]): 110 % Control and 103 % Control

CN(C)[C@@H]1C(O)=C(C(N)=O)C(=O)[C@@]2(O)C(O)=C3C(=O)c4c(O)ccc(Cl)c4[C@@](C)(O)[C@H]3C[C@@H]12 [Chlortetracycline]
zone of inhibition at 5 µg/disc (K. aridum): 18 mm

CO[C@@H]1[C@@H](OC(N)=O)[C@@H](O)[C@H](Oc2ccc3c(O)c(NC(=O)c4ccc(O)c(CC=C(C)C)c4)c(=O)oc3c2C)OC1(C)C [novobiocin]
zone of inhibition at 5 µg/disc (K. aridum): 27 to 28 mm

CN(C)C1C(=O)C(C(N)=O)=C(O)C2(O)C(=O)C3=C(O)c4c(O)cccc4C(C)(O)C3CC12 (stereo not drawn) [tetracycline]
zone of inhibition at 5 µg/disc (K. aridum): 11 to 12 mm

gentamicin
susceptibility of K. aridum (K. aridum; disk 10 μg): resistant

CC(=O)OCC1=C(C(=O)O)N2C(=O)[C@@H](NC(=O)Cc3cccs3)[C@H]2SC1 [cephalothin]
susceptibility of K. aridum (K. aridum; disk 30 μg): resistant

Avoparcin
GLU (glucose) (rumen in vitro model [1]; 0.5 ppm): 116 % Control | Propionate % (rumen in vitro model [1]; 0.5 ppm): 106 % Control | GLU (glucose) (rumen in vitro model [1]; 5.0 ppm): 166 % Control | Propionate % (rumen in vitro model [1]; 5.0 ppm): 121 % Control | GLU (glucose) (rumen in vitro model [1]; 50.0 ppm): 141 % Control | Propionate % (rumen in vitro model [1]; 50.0 ppm): 132 % Control

CCC[C@@H]1C[C@@H](C(=O)N[C@@H]([C@H]2O[C@H](SC)[C@H](O)[C@@H](O)[C@H]2O)[C@@H](C)O)N(C)C1 [lincomycin]
susceptibility of K. aridum (K. aridum; disk 2 μg): resistant

Virginiamycin
LAC (L-lactic acid) (Swine in vitro model): 81 % Control | GLU (glucose) (Swine in vitro model; 1.67 ppm): 182 % Control | LAC (L-lactic acid) (Swine in vitro model; 1.67 ppm): 70 % Control | LYS (lysine) (Swine in vitro model; 1.67 ppm): 82 % Control | GLU (glucose) (Swine in vitro model; 16.67 ppm): 191 % Control | LAC (L-lactic acid) (Swine in vitro model; 16.67 ppm): 76 % Control | LYS (lysine) (Swine in vitro model; 16.67 ppm): 127 % Control | GLU (glucose) (Swine in vitro model; 166.67 ppm): 197 % Control | LYS (lysine) (Swine in vitro model; 166.67 ppm): 163 % Control | Weight Day 10 ([17]; 10.0 PPM): 103.8 % of Control | Weight Day 17 ([17]; 10.0 PPM): 116.0 % of Control | Feed/Gain 3-10 ([17]; 10.0 PPM): 97.4 % of Control | Feed/Gain 3-17 ([17]; 10.0 PPM): 90.4 % of Control | Feed/Gain 10-17 ([17]; 10.0 PPM): 83.6 % of Control | Weight Day 10 ([17]; 50.0 PPM): 105.0 % of Control | Weight Day 17 ([17]; 50.0 PPM): 121.3 % of Control | Feed/Gain 3-10 ([17]; 50.0 PPM): 93.2 % of Control | Feed/Gain 3-17 ([17]; 50.0 PPM): 83.2 % of Control | Feed/Gain 10-17 ([17]; 50.0 PPM): 74.6 % of Control

[H]/N=C(/N)N[C@H]1[C@H](O)[C@@H](O)[C@H](O[C@@H]2O[C@@H](C)[C@](O)(C=O)[C@H]2O[C@@H]2O[C@@H](CO)[C@H](O)[C@@H](O)[C@@H]2NC)[C@@H](N/C(N)=N\[H])[C@@H]1O [streptomycin]
susceptibility of K. aridum (K. aridum; disk 10 μg): resistant

CCC[C@@H]1C[C@@H](C(=O)N[C@@H]([C@H]2O[C@H](SC)[C@H](O)[C@@H](O)[C@H]2O)[C@H](C)Cl)N(C)C1 [clindamycin]
susceptibility of K. aridum (K. aridum; disk 2 μg): resistant

NC[C@H]1O[C@H](O[C@H]2[C@H](O)[C@@H](O[C@H]3O[C@H](CO)[C@@H](O)[C@H](N)[C@H]3O)[C@H](N)C[C@@H]2N)[C@H](N)C[C@@H]1O [tobramycin]
susceptibility of K. aridum (K. aridum; disk 10 μg): resistant
